Source: patent publication US10351594B2, “Process for preparing compounds having triple activities of thrombolysis, antithrombosis, and radical scavenging” (Shanghai Lumosa Therapeutics Co., Ltd., priority 2013, dated 2019)
Marks after values point to notes of the source that are not given here.

Test system: formation of thrombus (rat arteriovenous bypass)
Experiment: Antithrombotic activity via intravenous administration, rat arteriovenous bypass cannula with thread
Type: in vivo, male SD rats
Settings: n = 10

Structure (SMILES): C[C@H](NC(=O)[C@@H]1CCCN1)C(=O)N[C@@H](CCCCN)C(=O)NCCCC[C@H](NC(=O)[C@@H]1Cc2cc(O)c(O)cc2C(C)(C)N1)C(=O)O [Compound 5Ak, 3S-6,7-dihydroxy-1,1-dimethyl-1,2,3,4-tetrahydro-isoquinoline-3-acyl-Lys(Pro-Ala-Lys)]
- wet weight of thrombus (Table 4, 5Ak 0.001 nmol/kg i.v.): 61.91 ± 3.27^c mg
- wet weight of thrombus (Table 4, 5Ak 0.01 nmol/kg i.v.): 57.34 ± 3.73^b mg
